In patent US12357598B2, “Treatment of neurodevelopmental disorders” (THE REGENTS OF THE UNIVERSITY OF CALIFORNIA, priority 2018, dated 2025):

Tested on: ddY mice
Experiment: Novel object recognition test (NORT), offspring after MIA
Format: in vivo, mouse
Procedure: Experiments of TPPU in drinking water. For experiment of TPPU (synthesized at UC Davis, CA) in drinking water in juvenile and adolescent stages, TPPU (15 mg/L) or water in drinking water was given in the male offspring from P28 to P56. Subsequently, normal water was given to all groups for 4 weeks (P57-P84). Behavioral tests of adult offspring were performed during adulthood (P70-P84) after prenatal poly(I:C) injections (FIG. 4A).
For experiment of TPPU in drinking water in pregnant stages, TPPU (15 mg/L) or water in drinking water was given in the pregnant mice from E12 to P21. Subsequently, normal water was given to all groups for […] (P21-P42). Behavioral tests of offspring were performed during juvenile stage (P28-P42) after prenatal poly(I:C) injections (FIG. 6A).
Novel Object Recognition Test (NORT): Mice were habituated for 10 minutes in the box for 3 straight days. At 4th day, two objects (differing in shape and color but of similar size) were placed in the box 35.5 cm apart (symmetrically), and each animal was allowed to explore in the box for 5 minutes. […] The time that mice spent exploring each object was recorded. […] The mice were then allowed to explore freely for 5 minutes, and the time spent exploring each object was recorded. […]

In the case of “polyriboinosinic-polyribocytidilic acid [Poly(I:C)]”, the “exploratory preference in NORT” value (adult offspring after prenatal poly(I:C) exposure) is reported as “Decreased” and the “exploratory preference, retention session of NORT” value (juvenile offspring, poly(I:C)+water group vs saline+water group) is reported as “significantly lower”.
